Results as given in patent publication US11471459B2, “Compounds with enhanced anti-tumor effects” (FONDAZIONE PER L'ISTITUTO ONCOLOGICO DI RICERCA (IOR), priority 2018, dated 2022).
pIC50: −log10 of the molar value.

Legend:
[1] = system: REC1; assay: Propidium iodide cell cycle staining; assay type: cell-based, human; settings: REC1, 500 and 2000 nM, 72 h
Experimental: Lymphoma cells (10^6 per condition) were fixed in cold 70% ethanol (for at least 30 minutes at 4° C.), added dropwise to the cell pellet while vortexing. Cells were washed ×2 in PBS and Spin at 2000 rpm; supernatant was discarded and cells suspended in PBS (0.5 mL) and treated with Ribonuclease (50 μl of 100 μg/mL RNase). Then 200 μl of propidium iodide (50 μg/ml) were added and data acquisition was performed by using BD FACS-Canto II.

[2] = system: OCI-LY-8; assay: Proliferation MTT assay, 72 h; assay type: cell-based; settings: OCI-Ly8, OCI-LY-8 (GCB-DLBCL), 72 h exposure
Experimental: (§1) Thirty-nine cell lines derived from activated B cell-like (ABC) (n=3) and germinal center B Cell (GCB) (n=12) diffuse large B cell lymphoma (DLBCL), mantle cell lymphoma (MCL) (n=9), chronic lymphocytic leukemia (CLL) (n=2), Hodgkin lymphoma (HL) (n=4), cutaneous T cell lymphoma (CTCL) (n=3), peripheral T cell lymphoma (PTCL) (n=1), anaplastic large T cell lymphoma (ALCL) (n=4), acute T cell leukemia (ATCL) (n=1) were cultured according to the recommended conditions. All media were supplemented with fetal bovine serum (10%), Penicillin-Streptomycin-Neomycin (˜5,000 units penicillin, 5 mg streptomycin and 10 mg neomycin/mL, Sigma) and L-glutamine (1%).
(§2) EG-011 was dissolved in dimethyl sulphoxide (DMSO) to obtain a stock concentration of 10 mM for in vitro experiments. EG-011 was dissolved in 25% hydroxypropyl beta cyclodextrin (HP-β-CD) in water and adjusted at pH 6.0 using NaOH (0.1 N) and HCl (0.1 N) for in vivo experiments. Application volume was 4.5 mL/kg (100 mg in 4.5 mL), and mice received 200 microliters (corresponding to 200 mg/kg) though intra peritoneal i.p. injection, once per day and five days per week.
(§3) Cells were seeded in 96-well plates (non-tissue culture treated) at a density of 10,000 cells for all cell lines. Each compound was dissolved in dimethyl sulphoxide (DMSO). For treatment of cells, compounds were serially diluted in the appropriate tissue culture medium, at a range of 20 mcM-78 nM following a 1:2 dilution factor and added to cells (in three replicates). Cells were incubated for 72 hours at 37° C., 5% CO2. DMSO alone was added to negative control (untreated) cells. Wells containing medium only were included on each plate and served as blanks for absorbance readings. MTT (Sigma-Aldrich Chemie GmbH, Buchs, Switzerland) was prepared as a 5 mg/ml stock in PBS and filter-sterilized. MTT solution (22 μL) was added to each well and tissue culture plates were incubated at 37° C. for 4 hours. Cells were then lysed with 25% SDS lysis buffer and absorbance was read at 570 nm using an AD340 plate reader (Beckman Coulter International SA, Switzerland). Absorbance values were expressed in percentage of proliferating cells in comparison with control cells (control corresponds to 100%).

[3] = system: SU-DHL-6; assay: Proliferation MTT assay, 72 h; assay type: cell-based; settings: Homo sapiens, SU-DHL-6 (GCB-DLBCL), 72 h exposure
Experimental: as §1, §2, §3

[4] = system: OCI-LY-3; assay: Proliferation MTT assay, 72 h; assay type: cell-based; settings: Homo sapiens, OCI-Ly3, OCI-LY-3 (ABC-DLBCL), 72 h exposure
Experimental: as §1, §2, §3

[5] = system: JURKAT; assay: Proliferation MTT assay, 72 h; assay type: cell-based; settings: Homo sapiens, JURKAT (T Cell Leukemia), 72 h exposure
Experimental: as §1, §2, §3

[6] = system: UPN1; assay: Proliferation MTT assay, 72 h; assay type: cell-based; settings: UPN1 (MCL), 72 h exposure
Experimental: as §1, §2, §3

[7] = system: TOLEDO; assay: Proliferation MTT assay, 72 h; assay type: cell-based; settings: Homo sapiens, TOLEDO (GCB-DLBCL), 72 h exposure
Experimental: as §1, §2, §3

[8] = system: H9; assay: Proliferation MTT assay, 72 h; assay type: cell-based; settings: Homo sapiens, H9 (T Cell - CTCL), 72 h exposure
Experimental: as §1, §2, §3

[9] = system: SU-DHL-2; assay: Proliferation MTT assay, 72 h; assay type: cell-based; settings: Homo sapiens, SU-DHL-2 (ABC-DLBCL), 72 h exposure
Experimental: as §1, §2, §3

[10] = system: SP53; assay: Proliferation MTT assay, 72 h; assay type: cell-based; settings: SP53 (MCL), 72 h exposure
Experimental: as §1, §2, §3

[11] = system: REC1; assay: Proliferation MTT assay, 72 h; assay type: cell-based; settings: Homo sapiens, REC1 (MCL), 72 h exposure
Experimental: as §1, §2, §3

[12] = system: HH; assay: Proliferation MTT assay, 72 h; assay type: cell-based; settings: Homo sapiens, HH (T Cell - CTCL), 72 h exposure
Experimental: as §1, §2, §3

[13] = system: L-1236; assay: Proliferation MTT assay, 72 h; assay type: cell-based; settings: L-1236 (HL), 72 h exposure
Experimental: as §1, §2, §3

[14] = system: Karpas-422; assay: Proliferation MTT assay, 72 h; assay type: cell-based; settings: Homo sapiens, Karpas-422 (GCB-DLBCL), 72 h exposure
Experimental: as §1, §2, §3

[15] = system: OCI-LY-1; assay: Proliferation MTT assay, 72 h; assay type: cell-based; settings: Homo sapiens, OCI-Ly1, OCI-LY-1 (GCB-DLBCL), 72 h exposure
Experimental: as §1, §2, §3

[16] = system: OCI-LY-10; assay: Proliferation MTT assay, 72 h; assay type: cell-based; settings: Homo sapiens, OCI-Ly10, OCI-LY-10 (ABC-DLBCL), 72 h exposure
Experimental: as §1, §2, §3

[17] = system: MEC1; assay: Proliferation MTT assay, 72 h; assay type: cell-based; settings: Homo sapiens, MEC1 (CLL), 72 h exposure
Experimental: as §1, §2, §3

[18] = system: KI-JK; assay: Proliferation MTT assay, 72 h; assay type: cell-based; settings: KI-JK (T Cell - ALCL), 72 h exposure
Experimental: as §1, §2, §3

[19] = system: HUT-78; assay: Proliferation MTT assay, 72 h; assay type: cell-based; settings: Homo sapiens, HuT78, HUT-78 (T Cell - CTCL), 72 h exposure
Experimental: as §1, §2, §3

[20] = system: KARPAS-299; assay: Proliferation MTT assay, 72 h; assay type: cell-based; settings: Homo sapiens, KARPAS-299 (T Cell - ALCL), 72 h exposure
Experimental: as §1, §2, §3

[21] = system: PCL-12; assay: Proliferation MTT assay, 72 h; assay type: cell-based; settings: PCL-12 (CLL), 72 h exposure
Experimental: as §1, §2, §3

[22] = system: SU-DHL-10; assay: Proliferation MTT assay, 72 h; assay type: cell-based; settings: Homo sapiens, SU-DHL10, SU-DHL-10 (GCB-DLBCL), 72 h exposure
Experimental: as §1, §2, §3

[23] = system: SP49; assay: Proliferation MTT assay, 72 h; assay type: cell-based; settings: SP49 (MCL), 72 h exposure
Experimental: as §1, §2, §3

[24] = system: RCK8; assay: Proliferation MTT assay, 72 h; assay type: cell-based; settings: Homo sapiens, RCK8 (GCB-DLBCL), 72 h exposure
Experimental: as §1, §2, §3

[25] = system: L-428; assay: Proliferation MTT assay, 72 h; assay type: cell-based; settings: Homo sapiens, L-428 (HL), 72 h exposure
Experimental: as §1, §2, §3

Structure (SMILES): C=CC(=O)N1CCCC(n2c(=O)c3ncccc3n(Cc3ccc(Oc4ccccc4)cc3)c2=O)C1 (stereo not shown) [EG-011, 1-[(4-phenoxyphenyl)methyl]-3-(1-prop-2-enoyl-3-piperidyl)pyrido[3,2-d]pyrimidine-2,4-dione]
- cells in the sub-GO phase (dead cells) [1]: dose dependent increase of the cells in the sub-GO phase
- pIC50 [2]: 6.52
- pIC50 [3]: 6.30
- pIC50 [4]: 5.00
- pIC50 [5]: 4.82
- pIC50 [6]: 6.92
- pIC50 [7]: 6.22
- pIC50 [8]: 6.00
- pIC50 [9]: 4.70
- pIC50 [10]: 6.00
- pIC50 [11]: 7.00
- pIC50 [12]: 4.82
- pIC50 [13]: 5.05
- pIC50 [14]: 5.82
- pIC50 [15]: 6.60
- pIC50 [16]: 5.30
- pIC50 [17]: 5.10
- pIC50 [18]: 4.70
- pIC50 [19]: 5.82
- pIC50 [20]: 4.70
- pIC50 [21]: 5.15
- pIC50 [22]: 6.52
- pIC50 [23]: 5.10
- pIC50 [24]: 5.00
- pIC50 [25]: 4.70
